Source: patent publication US20110046079A1, “Use of Proton Pump Inhibitors as Drug Delivery Adjuvants” (priority 2008, published 2011)

System: rat gastric corpus
Type: in vitro ADME
Conditions: omeprazole-treated vs control
Protocol: The numbers provided hereinbelow (Table 6) represent the transepithelial diffusion (mucosal to serosal) of radiolabeled bradykinin. […] It includes only intact bradykinin.
Two data sets from two experiments are provided. These are bradykinin fluxes in picomoles/min/cm^2. One tissue was treated only with DMSO (vehicle control). […] The other tissue (paired pieces of rat gastric corpus) is treated with omeprazole in DMSO. […] The bradykinin leak in controls is likely due to ‘experimental artifact’—in this case mechanical damage of the tissue in handling plus incubation. The increase in flux (leak) of bradykinin seen with DMSO may not be a function of the DMSO at all, but instead simply be a result of tissue ‘breakdown’ over time due to the tissue's very finite lifespan once out of the animal.

`CC[C@H](C)[C@@H]1NC(=O)[C@H](Cc2ccc(O)cc2)NC(=O)[C@@H](N)CSSC[C@@H](C(=O)N2CCC[C@H]2C(=O)N[C@@H](CC(C)C)C(=O)NCC(N)=O)NC(=O)[C@H](CC(N)=O)NC(=O)[C@H](CCC(N)=O)NC1=O` [oxytocin, Cys-Tyr-Iso-Gln-Asn-Cys-Pro-Leu-Gly] was tested, and the “leak with omeprazole over control” value was “not observed”.
